{"source": "patent US10597388B2", "about": "“Pyridazinone herbicides” (FMC CORPORATION, priority 2014, dated 2020)", "assay_type_in_all_cases": "in vivo", "key": {"[1]": {"system": "blackgrass (Alopecurus myosuroides)", "experiment": "Test A greenhouse herbicide test, postemergence", "procedure,_shortened": "(§1)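 Scores are visual injury ratings from 0 (no effect) to 100 (complete control) versus untreated plants, taken roughly 10 d after treatment in the greenhouse. Treatment was postemergence, on one- to two-leaf plants 2–10 cm high growing in a loam soil/sand mix.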"}, "[2]": {"system": "galium (catchweed bedstraw, Galium aparine)", "experiment": "Test A greenhouse herbicide test, postemergence", "procedure,_shortened": "as §1"}, "[3]": {"system": "barnyardgrass (Echinochloa crus-galli)", "experiment": "Test C greenhouse herbicide test, pre- and postemergence", "procedure,_shortened": "(§2)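 Percent-control ratings (0 none, 100 complete) came from visual comparison with controls held alongside in the greenhouse for 13–15 d. Treatments covered soil application at sowing and foliar application to young plants 2–18 cm tall.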"}, "[4]": {"system": "crabgrass, large (large crabgrass, Digitaria sanguinalis)", "experiment": "Test C greenhouse herbicide test, pre- and postemergence", "procedure,_shortened": "as §2"}, "[5]": {"system": "foxtail, giant (giant foxtail, Setaria faberii)", "experiment": "Test C greenhouse herbicide test, pre- and postemergence", "procedure,_shortened": "as §2"}, "[6]": {"system": "galium (catchweed bedstraw, Galium aparine)", "experiment": "Test C greenhouse herbicide test, pre- and postemergence", "procedure,_shortened": "as §2"}, "[7]": {"system": "johnsongrass (Sorghum halepense)", "experiment": "Test C greenhouse herbicide test, pre- and postemergence", "procedure,_shortened": "as §2"}, "[8]": {"system": "lambsquarters (Chenopodium album)", "experiment": "Test C greenhouse herbicide test, pre- and postemergence", "procedure,_shortened": "as §2"}, "[9]": {"system": "morningglory (Ipomoea coccinea)", "experiment": "Test C greenhouse herbicide test, pre- and postemergence", "procedure,_shortened": "as §2"}, "[10]": {"system": "oilseed rape (Brassica napus)", "experiment": "Test C greenhouse herbicide test, pre- and postemergence", "procedure,_shortened": "as §2"}, "[11]": {"system": "ragweed (common ragweed, Ambrosia elatior)", "experiment": "Test C greenhouse herbicide test, pre- and postemergence", "procedure,_shortened": "as §2"}, "[12]": {"system": "ryegrass, Italian (Italian ryegrass, Lolium multiflorum)", "experiment": "Test C greenhouse herbicide test, pre- and postemergence", "procedure,_shortened": "as §2"}, "[13]": {"system": "wheat (winter wheat, Triticum aestivum)", "experiment": "Test C greenhouse herbicide test, pre- and postemergence", "procedure,_shortened": "as §2"}, "[14]": {"settings": "125 g ai/ha, 0 to 100 scale where 0 is no effect and 100 is complete control"}, "[15]": {"settings": "500 g ai/ha, visual rating after approx. 10 d, 0 to 100 scale (0 no effect, 100 complete control)"}, "[16]": {"settings": "4 g ai/ha, preemergence, visual rating, scale 0 to 100 (0 no effect, 100 complete control), 13 to 15 d"}, "[17]": {"settings": "Postemergence, 8 g ai/ha, scale 0 to 100 (0 no effect, 100 complete control)"}, "[18]": {"settings": "Postemergence, 16 g ai/ha, scale 0 to 100 (0 no effect, 100 complete control)"}, "[19]": {"settings": "Postemergence, 31 g ai/ha, scale 0 to 100 (0 no effect, 100 complete control)"}, "[20]": {"settings": "Preemergence, 8 g ai/ha, scale 0 to 100, 0 is no effect, 100 is complete control"}, "[21]": {"settings": "Preemergence, 16 g ai/ha, scale 0 to 100, 0 is no effect, 100 is complete control"}, "[22]": {"settings": "Preemergence, 31 g ai/ha, scale 0 to 100, 0 is no effect, 100 is complete control"}}}
{"smiles": "Cc1ccc2ccc(Cl)cc2c1-c1c(O)c(C)nn(C)c1=O", "note": "[Compound 144]", "values": [{"measurement": "Plant response rating, Blackgrass", "setting": "[1]; [14]", "result": 90}, {"measurement": "Plant response rating, Blackgrass", "setting": "[1]; [15]", "result": 100}, {"measurement": "Plant response rating, Galium", "setting": "[2]; [14]", "result": 100}, {"measurement": "Plant response rating, Galium", "setting": "[2]; [15]", "result": 100}, {"measurement": "Plant response rating, Barnyardgrass", "setting": "[3]; [16]", "result": 0}, {"measurement": "Plant response rating, Barnyardgrass", "setting": "[3]; Postemergence, 4 g ai/ha, scale 0 to 100 (0 no effect, 100 complete control)", "result": 15}, {"measurement": "Plant response rating, Barnyardgrass", "setting": "[3]; [17]", "result": 25}, {"measurement": "Plant response rating, Barnyardgrass", "setting": "[3]; [18]", "result": 35}, {"measurement": "Plant response rating, Barnyardgrass", "setting": "[3]; [19]", "result": 65}, {"measurement": "Plant response rating, Barnyardgrass", "setting": "[3]; [20]", "result": 0}, {"measurement": "Plant response rating, Barnyardgrass", "setting": "[3]; [21]", "result": 5}, {"measurement": "Plant response rating, Barnyardgrass", "setting": "[3]; [22]", "result": 35}, {"measurement": "Plant response rating, Crabgrass, Large", "setting": "[4]; [16]", "result": 0}, {"measurement": "Crabgrass, Large plant response rating", "setting": "[4]; [17]", "result": 20}, {"measurement": "Plant response rating, Crabgrass, Large", "setting": "[4]; [17]", "result": 20}, {"measurement": "Plant response rating, Crabgrass, Large", "setting": "[4]; [18]", "result": 25}, {"measurement": "Plant response rating, Crabgrass, Large", "setting": "[4]; [19]", "result": 30}, {"measurement": "Plant response rating, Crabgrass, Large", "setting": "[4]; [20]", "result": 5}, {"measurement": "Plant response rating, Crabgrass, Large", "setting": "[4]; [21]", "result": 25}, {"measurement": "Plant response rating, Crabgrass, Large", "setting": "[4]; [22]", "result": 60}, {"measurement": "Plant response rating, Foxtail, Giant", "setting": "[5]; [16]", "result": 30}, {"measurement": "Foxtail, Giant plant response rating", "setting": "[5]; [17]", "result": 45}, {"measurement": "Plant response rating, Foxtail, Giant", "setting": "[5]; [17]", "result": 50}, {"measurement": "Plant response rating, Foxtail, Giant", "setting": "[5]; [18]", "result": 60}, {"measurement": "Plant response rating, Foxtail, Giant", "setting": "[5]; [19]", "result": 70}, {"measurement": "Plant response rating, Foxtail, Giant", "setting": "[5]; [20]", "result": 60}, {"measurement": "Plant response rating, Foxtail, Giant", "setting": "[5]; [21]", "result": 75}, {"measurement": "Plant response rating, Foxtail, Giant", "setting": "[5]; [22]", "result": 90}, {"measurement": "Plant response rating, Galium", "setting": "[6]; [16]", "result": 90}, {"measurement": "Galium plant response rating", "setting": "[6]; [17]", "result": 80}, {"measurement": "Plant response rating, Galium", "setting": "[6]; [17]", "result": 90}, {"measurement": "Plant response rating, Galium", "setting": "[6]; [18]", "result": 90}, {"measurement": "Plant response rating, Galium", "setting": "[6]; [19]", "result": 95}, {"measurement": "Plant response rating, Galium", "setting": "[6]; [21]", "result": 95}, {"measurement": "Plant response rating, Galium", "setting": "[6]; [22]", "result": 100}, {"measurement": "Plant response rating, Johnsongrass", "setting": "[7]; [16]", "result": 0}, {"measurement": "Johnsongrass plant response rating", "setting": "[7]; [17]", "result": 20}, {"measurement": "Plant response rating, Johnsongrass", "setting": "[7]; [17]", "result": 10}, {"measurement": "Plant response rating, Johnsongrass", "setting": "[7]; [18]", "result": 10}, {"measurement": "Plant response rating, Johnsongrass", "setting": "[7]; [19]", "result": 10}, {"measurement": "Plant response rating, Johnsongrass", "setting": "[7]; [21]", "result": 25}, {"measurement": "Plant response rating, Johnsongrass", "setting": "[7]; [22]", "result": 60}, {"measurement": "Plant response rating, Lambsquarters", "setting": "[8]; [16]", "result": 25}, {"measurement": "Lambsquarters plant response rating", "setting": "[8]; [17]", "result": 80}, {"measurement": "Plant response rating, Lambsquarters", "setting": "[8]; [17]", "result": 90}, {"measurement": "Plant response rating, Lambsquarters", "setting": "[8]; [18]", "result": 90}, {"measurement": "Plant response rating, Lambsquarters", "setting": "[8]; [19]", "result": 90}, {"measurement": "Plant response rating, Lambsquarters", "setting": "[8]; [21]", "result": 65}, {"measurement": "Plant response rating, Lambsquarters", "setting": "[8]; [22]", "result": 100}, {"measurement": "Plant response rating, Morningglory", "setting": "[9]; [16]", "result": 25}, {"measurement": "Morningglory plant response rating", "setting": "[9]; [17]", "result": 90}, {"measurement": "Plant response rating, Morningglory", "setting": "[9]; [17]", "result": 95}, {"measurement": "Plant response rating, Morningglory", "setting": "[9]; [18]", "result": 98}, {"measurement": "Plant response rating, Morningglory", "setting": "[9]; [19]", "result": 98}, {"measurement": "Plant response rating, Morningglory", "setting": "[9]; [21]", "result": 80}, {"measurement": "Plant response rating, Morningglory", "setting": "[9]; [22]", "result": 90}, {"measurement": "Plant response rating, Oilseed Rape", "setting": "[10]; [16]", "result": 0}, {"measurement": "Oilseed Rape plant response rating", "setting": "[10]; [17]", "result": 85}, {"measurement": "Plant response rating, Oilseed Rape", "setting": "[10]; [17]", "result": 95}, {"measurement": "Plant response rating, Oilseed Rape", "setting": "[10]; [18]", "result": 95}, {"measurement": "Plant response rating, Oilseed Rape", "setting": "[10]; [19]", "result": 95}, {"measurement": "Plant response rating, Oilseed Rape", "setting": "[10]; [21]", "result": 5}, {"measurement": "Plant response rating, Oilseed Rape", "setting": "[10]; [22]", "result": 70}, {"measurement": "Plant response rating, Ragweed", "setting": "[11]; [16]", "result": 70}, {"measurement": "Plant response rating, Ragweed", "setting": "[11]; [17]", "result": 10}, {"measurement": "Ragweed plant response rating", "setting": "[11]; [17]", "result": 10}, {"measurement": "Plant response rating, Ragweed", "setting": "[11]; [18]", "result": 35}, {"measurement": "Plant response rating, Ragweed", "setting": "[11]; [19]", "result": 35}, {"measurement": "Plant response rating, Ragweed", "setting": "[11]; [21]", "result": 95}, {"measurement": "Plant response rating, Ragweed", "setting": "[11]; [22]", "result": 98}, {"measurement": "Plant response rating, Ryegrass, Italian", "setting": "[12]; [16]", "result": 80}, {"measurement": "Plant response rating, Ryegrass, Italian", "setting": "[12]; [17]", "result": 35}, {"measurement": "Ryegrass, Italian plant response rating", "setting": "[12]; [17]", "result": 20}, {"measurement": "Plant response rating, Ryegrass, Italian", "setting": "[12]; [18]", "result": 45}, {"measurement": "Plant response rating, Ryegrass, Italian", "setting": "[12]; [19]", "result": 70}, {"measurement": "Plant response rating, Ryegrass, Italian", "setting": "[12]; [21]", "result": 100}, {"measurement": "Plant response rating, Ryegrass, Italian", "setting": "[12]; [22]", "result": 100}, {"measurement": "Plant response rating, Wheat", "setting": "[13]; [16]", "result": 0}, {"measurement": "Plant response rating, Wheat", "setting": "[13]; [17]", "result": 90}, {"measurement": "Wheat plant response rating", "setting": "[13]; [17]", "result": 90}, {"measurement": "Plant response rating, Wheat", "setting": "[13]; [18]", "result": 95}, {"measurement": "Plant response rating, Wheat", "setting": "[13]; [19]", "result": 95}, {"measurement": "Plant response rating, Wheat", "setting": "[13]; [21]", "result": 70}, {"measurement": "Plant response rating, Wheat", "setting": "[13]; [22]", "result": 90}]}
